Results from patent publication US20260069531A1, “POLYMERIC LEUPROLIDE ACETATE FORMULATIONS” (Tolmar International Limited, priority 2023, published 2026).

What was measured:
[1] = LA gelation studies of drug solutions (60° C., inversion test, HPLC content); format: physicochemical; details: e-beam irradiated, 150 rpm, up to 16 days
Protocol: Drug solutions were prepared as described above and filled into syringes or glass vials. Syringes were untreated, contained various amounts of silicone, or were plasma coated for lubrication. Samples were irradiated by e-beam irradiation at not less than 25 kGy and stored at accelerated conditions of 60° C. with agitation at 150 rpm for up to 16 days. Samples were inspected periodically to determine if the drug solution remained a solution or had formed a solid/gel by an inversion test. Samples that had “gelled” were transferred to 5° C. for subsequent testing.
The gelation rate for each sample was calculated as Rate=1/(simulated 5° C. age at time of gelation in days). The Arrhenius equation was used to determine the simulated age, assuming standard reaction rate doubling for every 10° C. increase in temperature. […] Data was analyzed using JMP. […] Container type and lubrication were not significant.
Samples were tested for leuprolide content by HPLC. Leuprolide content was then converted to leuprolide acetate by multiplying by 1.078 (based on molecular mass ratios). A marked difference in leuprolide acetate content between the gelled and non-gelled samples was seen, with the tipping point between solution and solid/gelled samples occurring at about 45% LA.

[2] = format: physicochemical
Text: To produce the drug/solvent bulk solution comprising the API (LA), the desired amount of the LA was combined with the solvent NMP or DMSO or combination of solvents with or without a co-solvent or other additives, in the indicated amounts (see individual experiments below). The API and solvent were combined in a glass vial or jar. Jars were mixed using the jar mill, Turbula, or shaker at room temperature until homogeneous. LA is soluble in NMP or DMSO and can load higher concentrations (at least 40% w/w). After dissolving the API in the organic solvent, the bulk solution was manually filled into syringes and capped with a tip cap. The syringes used for filling were either 1.2 mL male polypropylene syringes, 1.2 mL male cyclic olefin copolymer syringes or 1 mL male cyclic olefin copolymer syringes. Filled syringes were then packaged in labeled foil pouches with a Syringe A (polymer-solvent solution) and a desiccant pack and the pouches were sealed. After filling the syringes with the formulations, they were terminally sterilized with an external radiation dose of 30 kGy from e-beam processing. After terminal sterilization, the syringes were stored under refrigerated conditions (e.g., 2-8° C.) or accelerated conditions (>25° C. see individual experiments).

tipping point between solution and solid/gelled samples (leuprolide acetate content) [1]: about 45 % LA
concentration of LA that can be loaded (soluble) [2]: at least 40 % w/w
Structure (SMILES): CCNC(=O)[C@@H]1CCCN1C(=O)[C@H](CCCNC(=N)N)NC(=O)[C@H](CC(C)C)NC(=O)[C@@H](CC(C)C)NC(=O)[C@H](Cc1ccc(O)cc1)NC(=O)[C@H](CO)NC(=O)[C@H](Cc1c[nH]c2ccccc12)NC(=O)[C@H](Cc1c[nH]cn1)NC(=O)[C@@H]1CCC(=O)N1 [Leuprolide Acetate, leuprolide acetate]
